Measurements from PubChem BioAssay (NCI).
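Five concentrations, 48 hours, 96-well plates. GI50 = concentration required for 50% inhibition of growth. Definition used: TGI = concentration required for complete inhibition of growth.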

Columns and labels:
Assay in all cases: growth of human tumour cells (NCI), 48 h
[1] = tested on: MCF7 breast
[2] = tested on: HS 578T breast
[3] = tested on: IGROV1 ovarian
[4] = tested on: LOX IMVI melanoma
[5] = tested on: MDA-MB-435
[6] = tested on: SK-MEL-28 melanoma
[7] = tested on: 786-0 renal
[8] = tested on: MOLT-4 leukemia
[9] = tested on: U251 CNS
[10] = tested on: MDA-MB-231 breast
[11] = tested on: SK-MEL-2 melanoma
[12] = tested on: ACHN renal
[13] = tested on: CAKI-1 renal
[14] = tested on: SR leukemia
[15] = tested on: HCC-2998 colon
[16] = tested on: CCRF-CEM leukemia
[17] = tested on: SK-OV-3 ovarian
[18] = tested on: SF-295 CNS
[19] = tested on: SF-268 CNS
[20] = tested on: SF-539 CNS
[21] = tested on: NCI/ADR-RES ovarian
[22] = tested on: SK-MEL-5 melanoma
[23] = tested on: NCI-H226 lung
[24] = tested on: K-562 leukemia
[25] = tested on: SW-620 colon
[26] = tested on: SN12C renal
[27] = tested on: KM12 colon
[28] = tested on: UO-31 renal
[29] = tested on: MALME-3M melanoma
[30] = tested on: RXF 393 renal
[31] = tested on: SNB-75 CNS
[32] = tested on: OVCAR-5 ovarian
[33] = tested on: A498 renal
[34] = tested on: UACC-257 melanoma
[35] = tested on: NCI-H460 lung
[36] = tested on: DU-145 prostate
[37] = tested on: T-47D breast
[38] = tested on: HT29 colon
[39] = tested on: RPMI-8226 leukemia
[40] = tested on: OVCAR-8 ovarian
[41] = tested on: M14 melanoma
[42] = tested on: HOP-62 NSCLC
[43] = tested on: UACC-62 melanoma
[44] = tested on: NCI-H23 lung
[45] = tested on: OVCAR-4 ovarian
[46] = tested on: HL-60(TB) leukemia
[47] = tested on: SNB-19 CNS
[48] = tested on: BT-549 breast
[49] = tested on: HOP-92 NSCLC
[50] = tested on: EKVX NSCLC
[51] = tested on: HCT-116 colon
[52] = tested on: PC-3 prostate
[53] = tested on: COLO 205 colon
[54] = tested on: OVCAR-3 ovarian
[55] = tested on: NCI-H522 lung
[56] = tested on: A549 NSCLC
[57] = tested on: TK-10 renal

CCCCCCCCCCCCCCCCCCNC(=O)[C@H]1CSC(c2ccc(F)c(OC)c2)N1 (some centres not stated)
GI50 [1]: 0.141 µM | TGI [1]: 0.541 µM | GI50 [2]: 1.24 µM | TGI [2]: 2.97 µM | GI50 [3]: 1.43 µM | TGI [3]: 5.05 µM | GI50 [4]: 0.788 µM | TGI [4]: 2.07 µM | GI50 [5]: 0.518 µM | TGI [5]: 1.2 µM | GI50 [6]: 0.647 µM | TGI [6]: 1.33 µM | GI50 [7]: 1.01 µM | TGI [7]: 1.91 µM | GI50 [8]: 0.717 µM | TGI [8]: 5.17 µM | GI50 [9]: 0.866 µM | TGI [9]: 1.6 µM | GI50 [10]: 0.842 µM | TGI [10]: 1.67 µM | GI50 [11]: 0.887 µM | TGI [11]: 1.67 µM | GI50 [12]: 2.71 µM | TGI [12]: > 50 µM | GI50 [13]: 0.846 µM | TGI [13]: 1.58 µM | GI50 [14]: 0.637 µM | TGI [14]: 1.91 µM | GI50 [15]: 1.05 µM | TGI [15]: 1.94 µM | GI50 [16]: 0.284 µM | TGI [16]: 1.74 µM | GI50 [17]: 1.92 µM | TGI [17]: 11.2 µM | GI50 [18]: 2.14 µM | TGI [18]: 13.7 µM | GI50 [19]: 0.908 µM | TGI [19]: 1.84 µM | GI50 [20]: 1.77 µM | TGI [20]: 6.26 µM | GI50 [21]: 1.07 µM | TGI [21]: 2.41 µM | GI50 [22]: 0.812 µM | TGI [22]: 1.52 µM | GI50 [23]: 0.773 µM | TGI [23]: 1.58 µM | GI50 [24]: 0.774 µM | TGI [24]: 2.45 µM | GI50 [25]: 0.5 µM | TGI [25]: 1.54 µM | GI50 [26]: 0.805 µM | TGI [26]: 1.72 µM | GI50 [27]: 0.899 µM | TGI [27]: 1.79 µM | GI50 [28]: 5.57 µM | TGI [28]: > 50 µM | GI50 [29]: 0.951 µM | TGI [29]: 1.82 µM | GI50 [30]: 0.894 µM | TGI [30]: 1.6 µM | GI50 [31]: 0.87 µM | TGI [31]: 1.63 µM | GI50 [32]: 1 µM | TGI [32]: 1.91 µM | GI50 [33]: > 50 µM | TGI [33]: > 50 µM | GI50 [34]: 0.971 µM | TGI [34]: 1.88 µM | GI50 [35]: 0.211 µM | TGI [35]: 0.824 µM | GI50 [36]: 1.79 µM | TGI [36]: > 50 µM | GI50 [37]: 0.604 µM | TGI [37]: 1.46 µM | GI50 [38]: 1.03 µM | TGI [38]: 2.12 µM | GI50 [39]: 0.195 µM | TGI [39]: 0.826 µM | GI50 [40]: 0.976 µM | TGI [40]: 2.7 µM | GI50 [41]: 0.713 µM | TGI [41]: 1.47 µM | GI50 [42]: 0.843 µM | TGI [42]: 1.6 µM | GI50 [43]: 0.639 µM | TGI [43]: 1.28 µM | GI50 [44]: 1.42 µM | TGI [44]: 5.05 µM | GI50 [45]: 1.38 µM | TGI [45]: 3.62 µM | GI50 [46]: 0.67 µM | TGI [46]: 1.62 µM | GI50 [47]: 0.996 µM | TGI [47]: 1.96 µM | GI50 [48]: 0.974 µM | TGI [48]: 1.85 µM | GI50 [49]: 1.66 µM | TGI [49]: 4.61 µM | GI50 [50]: 0.813 µM | TGI [50]: 1.6 µM | GI50 [51]: 0.835 µM | TGI [51]: 1.64 µM | GI50 [52]: 1.55 µM | TGI [52]: 12 µM

Cc1ccc(S(=O)c2ccc([N+](=O)[O-])c3nonc23)cc1 (configuration not stated)
GI50 [1]: 5.53 µM | TGI [1]: 21.9 µM | GI50 [2]: 21.1 µM | TGI [2]: 60.2 µM | GI50 [3]: 12.2 µM | TGI [3]: 27.4 µM | GI50 [4]: 5.88 µM | TGI [4]: 19.2 µM | GI50 [5]: 10.2 µM | TGI [5]: 26 µM | GI50 [6]: 9.15 µM | TGI [6]: 23.3 µM | GI50 [7]: 13.2 µM | TGI [7]: 26.2 µM | GI50 [53]: 1.9 µM | TGI [53]: 3.43 µM | GI50 [8]: 2.64 µM | TGI [8]: 6.96 µM | GI50 [9]: 16 µM | TGI [9]: 35 µM | GI50 [10]: 10.1 µM | TGI [10]: 22.6 µM | GI50 [11]: 17.8 µM | TGI [11]: 35.8 µM | GI50 [12]: 1.92 µM | TGI [12]: 3.75 µM | GI50 [13]: 3.12 µM | TGI [13]: 11.3 µM | GI50 [14]: 3.39 µM | TGI [14]: > 100 µM | GI50 [15]: 15.6 µM | TGI [15]: 29.4 µM | GI50 [16]: 2.3 µM | TGI [16]: 6.27 µM | GI50 [17]: 18.8 µM | TGI [17]: 34.3 µM | GI50 [19]: 15 µM | TGI [19]: 29.9 µM | GI50 [20]: 19 µM | TGI [20]: 39.3 µM | GI50 [21]: 15.8 µM | TGI [21]: 48.9 µM | GI50 [22]: 14.8 µM | TGI [22]: 28.5 µM | GI50 [54]: 2.23 µM | TGI [54]: 4.78 µM | GI50 [23]: 15.7 µM | TGI [23]: 43.2 µM | GI50 [24]: 3.02 µM | TGI [24]: 9.18 µM | GI50 [25]: 2.18 µM | TGI [25]: 5 µM | GI50 [26]: 15 µM | TGI [26]: 31.3 µM | GI50 [27]: 15.8 µM | TGI [27]: 31.1 µM | GI50 [28]: 2.4 µM | TGI [28]: 9.54 µM | GI50 [29]: 2.23 µM | TGI [29]: 5.12 µM | GI50 [30]: 2.33 µM | TGI [30]: 5.53 µM | GI50 [55]: 1.57 µM | TGI [55]: 2.98 µM | GI50 [56]: 18.7 µM | TGI [56]: 39.5 µM | GI50 [32]: 9.5 µM | TGI [32]: 26.2 µM | GI50 [33]: 11.8 µM | TGI [33]: 26.4 µM | GI50 [34]: 11.6 µM | TGI [34]: 23.9 µM | GI50 [35]: 17.7 µM | TGI [35]: 38.6 µM | GI50 [36]: 7.87 µM | TGI [36]: 20.9 µM | GI50 [37]: 2.04 µM | TGI [37]: 4.59 µM | GI50 [57]: 2.53 µM | TGI [57]: 5.51 µM | GI50 [38]: 4.08 µM | TGI [38]: 22 µM | GI50 [39]: 3.62 µM | TGI [39]: 25.5 µM | GI50 [40]: 6.89 µM | TGI [40]: 22.4 µM | GI50 [41]: 11 µM | TGI [41]: 23.7 µM | GI50 [42]: 16.2 µM | TGI [42]: 30.8 µM | GI50 [43]: 7.25 µM | TGI [43]: 20.2 µM | GI50 [44]: 14.1 µM | TGI [44]: 30.4 µM | GI50 [45]: 3.08 µM | TGI [45]: 9.24 µM | GI50 [46]: 3.09 µM | TGI [46]: 8.93 µM | GI50 [47]: 14.7 µM | TGI [47]: 33.9 µM | GI50 [48]: 10.1 µM | TGI [48]: 21.7 µM | GI50 [49]: 4.09 µM | TGI [49]: 17.2 µM | GI50 [51]: 1.82 µM | TGI [51]: 3.39 µM | GI50 [52]: 12.8 µM | TGI [52]: 27.1 µM
